Results on four compounds are retold here after patent US10870647B2, “Imidazopyridine derivative, method for preparing same, and pharmaceutical composition containing same as active ingredient for preventing or treating cancer” (DAEGU-GYEONGBUK MEDICAL INNOVATION FOUNDATION, priority 2016, dated 2020).

In one test the target is T1, CDK11 (Homo sapiens, UniProt Q9BWU1).
T1 construct: purchased Reaction Biology Co
The test is described as follows: Enzyme inhibitory activity (Kd), Reaction Biology Co. Type of test: binding.

Another test concerns the target T2, LCK (Homo sapiens, UniProt P06239).
T2 construct: purchased Reaction Biology Co
The description is as above. Type of test: binding.

Another test concerns the target T3, BLK (Homo sapiens, UniProt P51451).
T3 construct: purchased Reaction Biology Co
The test is described as above. It counts as binding.

Another test has as its target T4, FGR (Homo sapiens, UniProt P09769).
T4 construct: purchased Reaction Biology Co
The test is described as above. It counts as binding.

In another test the target is T5, YES (Homo sapiens, UniProt P07947).
T5 construct: purchased Reaction Biology Co
T5 sequence (P07947 whole entry): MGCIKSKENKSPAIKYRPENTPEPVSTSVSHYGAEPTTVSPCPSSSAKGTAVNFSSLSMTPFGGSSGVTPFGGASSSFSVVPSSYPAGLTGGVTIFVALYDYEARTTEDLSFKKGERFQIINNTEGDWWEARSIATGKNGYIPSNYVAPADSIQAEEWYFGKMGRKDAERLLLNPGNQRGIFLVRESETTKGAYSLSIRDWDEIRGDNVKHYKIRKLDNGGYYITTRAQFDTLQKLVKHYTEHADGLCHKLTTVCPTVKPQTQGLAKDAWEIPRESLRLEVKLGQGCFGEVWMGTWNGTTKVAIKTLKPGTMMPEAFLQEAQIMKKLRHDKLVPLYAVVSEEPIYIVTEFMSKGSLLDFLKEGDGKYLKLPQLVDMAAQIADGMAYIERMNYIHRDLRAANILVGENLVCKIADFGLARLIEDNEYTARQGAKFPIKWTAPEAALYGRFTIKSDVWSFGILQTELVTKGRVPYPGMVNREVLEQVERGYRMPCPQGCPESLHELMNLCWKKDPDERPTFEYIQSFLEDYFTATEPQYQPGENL
The test is described as above. It counts as binding.

The next test deals with T6, FYN (Homo sapiens, UniProt P06241).
T6 construct: purchased Reaction Biology Co
T6 sequence (P06241 whole entry): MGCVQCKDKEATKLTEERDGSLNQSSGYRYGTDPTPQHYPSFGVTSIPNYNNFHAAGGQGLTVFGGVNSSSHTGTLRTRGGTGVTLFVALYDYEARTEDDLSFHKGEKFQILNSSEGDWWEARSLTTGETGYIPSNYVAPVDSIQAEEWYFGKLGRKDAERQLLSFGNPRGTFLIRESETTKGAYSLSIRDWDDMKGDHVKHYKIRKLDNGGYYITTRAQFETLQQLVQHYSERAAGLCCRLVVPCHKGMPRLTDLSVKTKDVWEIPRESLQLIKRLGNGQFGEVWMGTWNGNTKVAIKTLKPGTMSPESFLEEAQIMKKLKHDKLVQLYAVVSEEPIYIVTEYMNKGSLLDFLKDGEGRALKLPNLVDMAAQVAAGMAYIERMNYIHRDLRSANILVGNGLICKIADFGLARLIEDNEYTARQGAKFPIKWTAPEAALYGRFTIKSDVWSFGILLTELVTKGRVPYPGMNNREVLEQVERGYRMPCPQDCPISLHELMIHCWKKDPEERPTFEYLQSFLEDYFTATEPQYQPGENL
The description is as above. It counts as binding.

The next test addresses T7, HCK (Homo sapiens, UniProt P08631).
T7 construct: purchased Reaction Biology Co
Described as above. It counts as binding.

In the next test the target is T8, SRC (Homo sapiens, UniProt P12931).
T8 construct: purchased Reaction Biology Co
T8 sequence (P12931 whole entry): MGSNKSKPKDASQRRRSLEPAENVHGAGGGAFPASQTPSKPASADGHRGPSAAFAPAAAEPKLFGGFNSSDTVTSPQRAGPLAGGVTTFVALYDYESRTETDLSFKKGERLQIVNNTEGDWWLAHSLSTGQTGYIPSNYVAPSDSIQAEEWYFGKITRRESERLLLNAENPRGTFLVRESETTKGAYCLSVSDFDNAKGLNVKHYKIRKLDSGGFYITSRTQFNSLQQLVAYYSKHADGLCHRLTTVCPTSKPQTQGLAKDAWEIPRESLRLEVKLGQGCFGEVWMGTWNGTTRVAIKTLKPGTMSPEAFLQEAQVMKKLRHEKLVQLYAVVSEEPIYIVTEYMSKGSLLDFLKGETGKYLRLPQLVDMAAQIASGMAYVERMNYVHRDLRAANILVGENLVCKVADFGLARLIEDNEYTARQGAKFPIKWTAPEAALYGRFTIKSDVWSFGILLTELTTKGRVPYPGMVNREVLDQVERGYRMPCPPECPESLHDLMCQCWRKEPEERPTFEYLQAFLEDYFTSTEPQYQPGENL
Described as above. It counts as binding.

The subject of test [1] is STZ diabetes induced white mice. Kind of test: Diabetes (streptozotocin) induced white mice. Type of test: in vivo, SD rats. The following applies: STZ + Example 11 (30 mg/kg), 8 weeks; Mean ± SE. How it is done:
Blood was collected with a heparinized syringe before sacrificing the experimental animals. HbA1c was measured by using a DCA2000 HbA1c reagent kit (SIEMENS Healthcare Diagnostics, Inc., Tarrytown, N.Y., USA) and blood sugar was measured by using a glucometer (OneTouch Ultra, Johnson & Johnson co., CA, USA). The blood sample obtained above was centrifuged at 3000 rpm at 4° C. for 15 minutes to obtain serum. Serum cystatin C was measured by using an ELISA kit (R&D Systems, Minneapolis, Minn., USA). […]
Male SD white mice at 6-7 weeks of age (Japan SLC Inc., Hamamatsu, Japan) were used. Streptozotocin (STZ, 60 mg/kg, intraperitoneally administered) was administered to the experimental animals to induce type I diabetes. The STZ non-treated control group was treated with sodium citrate buffer (sodium citrate 100 mM, citric acid 100 mM, pH 4.5). To investigate the therapeutic effect of the compound of example 11, the compound was orally administered to the experimental animals for 8 weeks from the beginning of diabetes induction. The effect was compared with that of losartan (1 mg/kg/d) that is an angiotensin receptor antagonist being used clinically as a drug to treat diabetic nephropathy. The diabetic control (treated with STZ alone) was administered with the solvent of Example 11, DMSO/Tween 70.DW (10:5:85).
Table 8 below presents the body weight, kidney weight, ratio of kidney to body weight, HbA1C, blood sugar and urine amount (volume) of the mice of each group, which were measured 8 weeks after the treatment of control (non-treated with STZ), STZ, STZ+compound of Example 11 (30 mg/kg) and STZ+losartan (1 mg/kg).

In another test the target is T9, EPHB6 (Homo sapiens, UniProt O15197).
T9 construct: purchased Reaction Biology Co
T9 sequence (O15197 32-1021): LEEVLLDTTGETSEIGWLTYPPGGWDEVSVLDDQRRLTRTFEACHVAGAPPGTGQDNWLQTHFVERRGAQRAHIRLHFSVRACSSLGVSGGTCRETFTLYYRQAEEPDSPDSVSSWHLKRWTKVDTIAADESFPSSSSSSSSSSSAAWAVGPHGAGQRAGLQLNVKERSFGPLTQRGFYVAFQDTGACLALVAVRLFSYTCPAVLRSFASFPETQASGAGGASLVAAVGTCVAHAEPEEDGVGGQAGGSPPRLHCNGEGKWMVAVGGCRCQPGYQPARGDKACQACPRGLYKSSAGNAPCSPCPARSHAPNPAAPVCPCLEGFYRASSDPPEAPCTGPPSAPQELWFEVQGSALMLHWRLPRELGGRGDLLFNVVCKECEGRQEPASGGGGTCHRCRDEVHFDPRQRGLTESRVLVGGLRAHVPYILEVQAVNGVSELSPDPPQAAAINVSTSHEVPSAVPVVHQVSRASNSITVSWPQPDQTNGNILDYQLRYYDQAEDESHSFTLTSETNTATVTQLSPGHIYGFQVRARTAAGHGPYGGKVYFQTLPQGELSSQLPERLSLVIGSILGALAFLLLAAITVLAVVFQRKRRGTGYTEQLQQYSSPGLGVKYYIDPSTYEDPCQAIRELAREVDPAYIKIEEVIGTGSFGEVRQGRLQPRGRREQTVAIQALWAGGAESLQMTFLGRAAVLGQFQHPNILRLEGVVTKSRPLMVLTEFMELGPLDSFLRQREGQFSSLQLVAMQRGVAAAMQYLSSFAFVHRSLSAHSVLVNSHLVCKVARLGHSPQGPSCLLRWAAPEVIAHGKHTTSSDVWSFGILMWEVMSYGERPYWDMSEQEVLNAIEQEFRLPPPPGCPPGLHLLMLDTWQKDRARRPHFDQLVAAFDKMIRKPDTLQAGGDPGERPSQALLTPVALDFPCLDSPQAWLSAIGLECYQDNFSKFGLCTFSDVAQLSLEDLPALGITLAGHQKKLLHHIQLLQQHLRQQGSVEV
Kind of test: Enzyme inhibitory activity (Kd), Reaction Biology Co. It counts as binding.

T4 sequence (P09769 whole entry): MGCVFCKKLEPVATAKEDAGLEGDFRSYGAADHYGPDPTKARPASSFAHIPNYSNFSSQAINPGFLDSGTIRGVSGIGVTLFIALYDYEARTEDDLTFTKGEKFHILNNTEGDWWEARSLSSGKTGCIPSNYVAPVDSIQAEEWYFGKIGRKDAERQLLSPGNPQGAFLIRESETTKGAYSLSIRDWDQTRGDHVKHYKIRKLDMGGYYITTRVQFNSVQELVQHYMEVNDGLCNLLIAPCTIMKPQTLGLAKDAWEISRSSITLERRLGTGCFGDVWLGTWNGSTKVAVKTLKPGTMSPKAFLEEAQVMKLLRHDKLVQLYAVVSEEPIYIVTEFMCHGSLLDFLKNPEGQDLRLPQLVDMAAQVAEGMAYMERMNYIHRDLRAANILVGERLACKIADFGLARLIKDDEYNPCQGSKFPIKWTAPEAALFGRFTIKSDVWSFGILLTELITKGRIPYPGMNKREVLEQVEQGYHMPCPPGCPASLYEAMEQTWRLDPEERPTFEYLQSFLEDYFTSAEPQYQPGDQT
T1 sequence (Q9BWU1 whole entry): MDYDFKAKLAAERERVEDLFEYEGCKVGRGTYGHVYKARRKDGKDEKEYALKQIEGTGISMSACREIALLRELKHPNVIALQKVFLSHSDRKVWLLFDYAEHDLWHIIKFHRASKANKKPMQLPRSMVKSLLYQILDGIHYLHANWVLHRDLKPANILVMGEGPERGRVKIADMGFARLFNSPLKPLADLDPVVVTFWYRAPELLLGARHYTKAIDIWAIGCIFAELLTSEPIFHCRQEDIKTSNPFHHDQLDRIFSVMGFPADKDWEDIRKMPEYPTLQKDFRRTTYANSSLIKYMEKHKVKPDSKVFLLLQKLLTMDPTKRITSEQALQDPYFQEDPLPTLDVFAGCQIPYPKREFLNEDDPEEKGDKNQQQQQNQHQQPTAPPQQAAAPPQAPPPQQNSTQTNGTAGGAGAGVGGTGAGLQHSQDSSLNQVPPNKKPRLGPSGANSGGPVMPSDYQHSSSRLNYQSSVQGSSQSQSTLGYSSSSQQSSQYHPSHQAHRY
T7 sequence (P08631 whole entry): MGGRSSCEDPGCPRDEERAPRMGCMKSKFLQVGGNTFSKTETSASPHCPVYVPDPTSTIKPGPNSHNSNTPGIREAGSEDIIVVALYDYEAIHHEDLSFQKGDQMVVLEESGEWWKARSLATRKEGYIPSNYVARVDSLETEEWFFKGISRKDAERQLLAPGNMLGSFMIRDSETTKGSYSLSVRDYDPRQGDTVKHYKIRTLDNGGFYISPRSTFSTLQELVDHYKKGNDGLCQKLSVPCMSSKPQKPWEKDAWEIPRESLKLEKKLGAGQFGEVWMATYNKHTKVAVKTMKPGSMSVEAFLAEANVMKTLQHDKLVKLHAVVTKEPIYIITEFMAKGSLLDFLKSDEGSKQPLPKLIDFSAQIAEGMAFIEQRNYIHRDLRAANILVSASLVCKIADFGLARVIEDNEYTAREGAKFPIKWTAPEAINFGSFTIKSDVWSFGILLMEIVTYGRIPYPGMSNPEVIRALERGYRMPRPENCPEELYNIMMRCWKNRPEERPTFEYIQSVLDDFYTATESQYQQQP
T3 sequence (P51451 whole entry): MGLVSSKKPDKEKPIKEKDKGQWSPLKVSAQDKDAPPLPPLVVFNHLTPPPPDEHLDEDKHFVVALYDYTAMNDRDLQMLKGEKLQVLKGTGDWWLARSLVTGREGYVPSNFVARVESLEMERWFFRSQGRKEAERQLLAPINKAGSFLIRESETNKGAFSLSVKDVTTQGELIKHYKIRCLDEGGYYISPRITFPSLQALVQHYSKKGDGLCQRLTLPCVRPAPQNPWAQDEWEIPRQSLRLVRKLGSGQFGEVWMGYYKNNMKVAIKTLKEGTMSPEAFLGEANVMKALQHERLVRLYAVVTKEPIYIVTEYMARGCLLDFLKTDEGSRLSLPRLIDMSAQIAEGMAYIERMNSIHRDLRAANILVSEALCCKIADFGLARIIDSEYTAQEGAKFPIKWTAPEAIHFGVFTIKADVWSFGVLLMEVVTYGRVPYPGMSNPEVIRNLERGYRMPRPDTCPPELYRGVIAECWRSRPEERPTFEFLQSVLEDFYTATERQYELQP

At CDK11, `Cc1ccc(C(=O)Nc2ccc(CN3CCN(C)CC3)c(C(F)(F)F)c2)cc1C#Cc1cnc2c(Nc3cnn(C)c3)cccn12` [Example 1, 4-methyl-3-((8-((1-methyl-1H-pyrazol-4-yl)amino)imidazo[1,2-a]pyridin-3-yl)ethynyl)-N-(4-((4-methylpiperazin-1-yl)methyl)-3-(trifluoromethyl)phenyl)benzamide] showed a Kd of 0.14 µM.

Turning to `CCN1CCN(Cc2ccc(NC(=O)c3ccc(C)c(C#Cc4cnc5c(Nc6cnn(C)c6)cccn45)c3)cc2C(F)(F)F)CC1` [Example 8, N-(4-((4-ethylpiperazin-1-yl)methyl)-3-(trifluoromethyl)phenyl)-4-methyl-3-((8-((1-methyl-1H-pyrazol-4-yl)amino)imidazo[1,2-a]pyridin-3-yl)ethynyl)benzamide], the Kd on LCK was 0.0064 µM; at BLK, 0.005 µM; on FGR, 0.013 µM; at YES it was 0.017 µM; at FYN it was 0.052 µM; at HCK, 0.0077 µM. The same compound returned a Kd on SRC of 0.01 µM.

As for `Cc1ccc(C(=O)Nc2cccc(C(F)(F)F)c2)cc1C#Cc1cnc2c(Nc3cnn(C4CCNCC4)c3)cccn12` [Example 11, 4-methyl-3-((8-((1-(piperidin-4-yl)-1H-pyrazol-4-yl)amino)imidazo[1,2-a]pyridin-3-yl)ethynyl)-N-(3-(trifluoromethyl)phenyl)benzamide], in test [1], the HbA1C is 6.7 ± 0.2 %, the Kidney came to 1.6 ± 0.1 g, the Urine volume is on record as 93.0 ± 12.5 and the Weight came to 241 ± 16.0 g. Also, in test [1], the blood sugar worked out at 392 ± 33 mg/dL and the kidney/Weight ratio is on record as 0.7 ± 0.04.

On EPHB6, `Cc1ccc(NC(=O)C2(C(=O)Nc3ccc(F)cc3)CC2)cc1C#Cc1cnc2c(Nc3cnn(C(C)C)c3)cccn12` [Example 78] showed a dissociation constant (Kd) of 0.015 µM.
